Test results: patent US9562053B2, “Benzo-fused heterocyclic derivatives useful as agonists of GPR120” (Janssen Pharmaceutica NV, priority 2013, dated 2017)

biological target: T1, Human GPR120 short form (Homo sapiens, UniProt Q5NUL3); test: Human GPR120 in Calcium Flux Assay, Procedure Calcium A (2500 cells/well); assay type: cell-based
T1 construct: expressed in transfected cells
T1 sequence (Q5NUL3 1-361): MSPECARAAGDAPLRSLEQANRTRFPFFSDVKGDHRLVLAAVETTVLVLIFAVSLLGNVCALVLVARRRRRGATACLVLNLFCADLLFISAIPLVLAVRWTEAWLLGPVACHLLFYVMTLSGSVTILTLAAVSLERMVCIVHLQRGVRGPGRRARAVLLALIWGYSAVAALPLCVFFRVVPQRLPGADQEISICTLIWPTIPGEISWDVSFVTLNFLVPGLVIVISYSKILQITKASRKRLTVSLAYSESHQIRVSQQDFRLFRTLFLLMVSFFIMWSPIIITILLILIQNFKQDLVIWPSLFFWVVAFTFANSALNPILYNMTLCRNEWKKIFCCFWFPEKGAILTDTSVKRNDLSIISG
Procedure, shortened: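 HEK293 cells stably expressing GPR120 short isoform, 2500 cells/well, serum-starved 1 h, loaded with Fluo-4 NW plus probenecid (30 min 37 °C, 15 min RT). Compounds prepared at 0.012–100 μM, 0.2% DMSO final. FLIPR calcium signal over 300 s as Fmax−Fmin; EC50 from variable-slope fit (Hill <2).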

| SMILES | EC50 |
| --- | --- |
| CCc1cc2cc(F)cc(COc3ccc(CCC(=O)O)c(C)c3C)c2o1 [Compound 3, 3-{4-[(2-Ethyl-5-fluoro-1-benzofuran-7-yl)methoxy]-2,3-dimethylphenyl}propanoic acid] | 58 nM |
| CCCc1cc2cc(Cl)cc(COc3ccc(CCC(=O)O)c(C)c3C)c2o1 [Compound 31, 3-{4-[(5-Chloro-2-propyl-1-benzofuran-7-yl)methoxy]-2,3-dimethylphenyl}propanoic acid] | 44 nM |
| CCc1cc2cc(OC(F)(F)F)cc(COc3ccc(CCC(=O)O)c(C)c3C)c2o1 [Compound 12, 3-(4-{[2-Ethyl-5-(trifluoromethoxy)-1-benzofuran-7-yl]methoxy}-2,3-dimethylphenyl)propanoic acid] | 39 nM |
| Cc1c(CCC(=O)O)ccc(OCc2cc(F)cc3cc(CC(C)C)oc23)c1C [Compound 23, 3-(4-{[5-Fluoro-2-(2-methylpropyl)-1-benzofuran-7-yl]methoxy}-2,3-dimethylphenyl)propanoic acid] | 339 nM |
| CCc1cc2cc(Br)cc(COc3ccc(CCC(=O)O)c(C)c3C)c2o1 [Compound 45, 3-{4-[(5-Bromo-2-ethyl-1-benzofuran-7-yl)methoxy]-2,3-dimethylphenyl}propanoic acid] | 24 nM |
| CCOc1cc(COc2ccc(CCC(=O)O)c(C)c2C)c2oc(CC)cc2c1 [Compound 29, 3-{4-[(5-Ethoxy-2-ethyl-1-benzofuran-7-yl)methoxy]-2,3-dimethylphenyl}propanoic acid] | 107 nM |
| Cc1c(CCC(=O)O)ccc(OCc2cc(F)cc3cc(C(F)F)oc23)c1C [Compound 32, 3-(4-{[2-(Difluoromethyl)-5-fluoro-1-benzofuran-7-yl]methoxy}-2,3-dimethylphenyl)propanoic acid] | 277 nM |
| Cc1c(CCC(=O)O)ccc(OCc2cc(F)cc3cc(C#N)oc23)c1C [Compound 49, 3-{4-[(2-Cyano-5-fluoro-1-benzofuran-7-yl)methoxy]-2,3-dimethylphenyl}propanoic acid] | 237 nM |
| CCc1cc2cc(Cl)c(OC)c(COc3ccc(CCC(=O)O)c(C)c3C)c2o1 [Compound 44, 3-{4-[(5-Chloro-2-ethyl-6-methoxy-1-benzofuran-7-yl)methoxy]-2,3-dimethylphenyl}propanoic acid] | 27 nM |
| COCc1cc2cc(F)cc(COc3ccc(CCC(=O)O)c(C)c3C)c2o1 [Compound 21, 3-(4-{[5-Fluoro-2-(methoxymethyl)-1-benzofuran-7-yl]methoxy}-2,3-dimethylphenyl)propanoic acid] | 159 nM |
| CCCc1cc2cc(Cl)cc(COc3ccc(CCC(=O)O)c(C)c3C#N)c2o1 [Compound 41, 3-{4-[(5-Chloro-2-propyl-1-benzofuran-7-yl)methoxy]-3-cyano-2-methylphenyl}propanoic acid] | 291 nM |
| Cc1c(CCC(=O)O)ccc(OCc2cc(F)cc3cc(C4CCCC4)oc23)c1C [Compound 18, 3-{4-[(2-Cyclopentyl-5-fluoro-1-benzofuran-7-yl)methoxy]-2,3-dimethylphenyl}propanoic acid] | 653 nM |
| Cc1cc2cc(OC(F)(F)F)cc(COc3ccc(CCC(=O)O)c(C)c3C)c2o1 [Compound 36, 3-(2,3-Dimethyl-4-{[2-methyl-5-(trifluoromethoxy)-1-benzofuran-7-yl]methoxy}phenyl)propanoic acid] | 10 nM |
| CCCc1cc2cc(I)cc(COc3ccc(CCC(=O)O)c(C)c3C)c2o1 [Compound 47, 3-{4-[(5-Iodo-2-propyl-1-benzofuran-7-yl)methoxy]-2,3-dimethylphenyl}propanoic acid] | 22 nM |
| Cc1c(CCC(=O)O)ccc(OCc2cc(F)cc3cc(C(F)(F)F)oc23)c1C [Compound 4, 3-(4-{[5-Fluoro-2-(trifluoromethyl)-1-benzofuran-7-yl]methoxy}-2,3-dimethylphenyl)propanoic acid] | 279 nM |
| Cc1cc2cc(OC(F)(F)F)cc(COc3ccc(CCC(=O)O)c4c3CCC4)c2o1 [Compound 55, 3-(7-{[2-Methyl-5-(trifluoromethoxy)-1-benzofuran-7-yl]methoxy}-2,3-dihydro-1H-inden-4-yl)propanoic acid] | 28 nM |

The remaining lines, values ahead:

| EC50 | SMILES |
| --- | --- |
| 113 nM | Cc1cc2cc3c(c(COc4ccc(CCC(=O)O)c(C)c4C)c2o1)OCCO3 [Compound 90, 3-{2,3-Dimethyl-4-[(7-methyl-2,3-dihydrofuro[2,3-g][1,4]benzodioxin-5-yl)methoxy]phenyl}propanoic acid] |
| 51 nM | CC#Cc1cc(COc2ccc(CCC(=O)O)c(C)c2C)c2oc(C)cc2c1 [Compound 83, 3-{2,3-Dimethyl-4-[(2-methyl-5-prop-1-yn-1-yl-1-benzofuran-7-yl)methoxy]phenyl}propanoic acid] |
| 20 nM | Cc1c(CCC(=O)O)ccc(OCc2cc(OC(F)(F)F)cc3cc(C=CF)oc23)c1C (mixture of isomers) [Compound 97, 3-(4-{[2-(2-Fluoroethenyl)-5-(trifluoromethoxy)-1-benzofuran-7-yl]methoxy}-2,3-dimethylphenyl)propanoic acid] |
| 93 nM | CCCc1cc2cc(Cl)cc(COc3ccc(CCC(=O)O)c(F)c3F)c2o1 [Compound 59, 3-{4-[(5-Chloro-2-propyl-1-benzofuran-7-yl)methoxy]-2,3-difluorophenyl}propanoic acid] |
| 20 nM | Cc1cc2cc(OC(F)F)cc(COc3ccc(CCC(=O)O)c(C)c3C)c2o1 [Compound 76, 3-(4-{[5-(Difluoromethoxy)-2-methyl-1-benzofuran-7-yl]methoxy}-2,3-dimethylphenyl)propanoic acid] |
| 45 nM | CCc1cc2cc(Cl)c(OC(F)F)c(COc3ccc(CCC(=O)O)c(C)c3C)c2o1 [Compound 69, 3-(4-{[5-Chloro-6-(difluoromethoxy)-2-ethyl-1-benzofuran-7-yl]methoxy}-2,3-dimethylphenyl)propanoic acid] |
| 136 nM | Cc1cc2c(COc3ccc(CCC(=O)O)c(C)c3C)cc(Cl)cc2o1 [Compound 81, 3-{4-[(6-Chloro-2-methyl-1-benzofuran-4-yl)methoxy]-2,3-dimethylphenyl}propanoic acid] |
| 131 nM | Cc1nc2cc(Cl)cc(COc3ccc(CCC(=O)O)c(C)c3C)c2o1 [Compound 84, 3-{4-[(5-Chloro-2-methyl-1,3-benzoxazol-7-yl)methoxy]-2,3-dimethylphenyl}propanoic acid] |
| 162 nM | Cc1oc2cccc(COc3ccc(CCC(=O)O)c(C)c3C)c2c1C [Compound 60, 3-{4-[(2,3-Dimethyl-1-benzofuran-4-yl)methoxy]-2,3-dimethylphenyl}propanoic acid] |
| 28 nM | CCCc1cc2cc(OC(F)F)cc(COc3ccc(CCC(=O)O)c(C)c3C)c2o1 [Compound 77, 3-(4-{[5-(Difluoromethoxy)-2-propyl-1-benzofuran-7-yl]methoxy}-2,3-dimethylphenyl)propanoic acid] |
| 147 nM | Cc1c(CCC(=O)O)ccc(OCc2cc(Cl)cc3cc(C=CF)oc23)c1C (mixture of isomers) [Compound 88, 3-(4-((5-Chloro-2-(2-fluorovinyl)benzofuran-7-yl)methoxy)-2,3-dimethylphenyl)propanoic acid] |
| 151 nM | Cc1oc2cc(Cl)cc(COc3ccc(CCC(=O)O)c(C)c3C)c2c1C [Compound 80, 3-{4-[(6-Chloro-2,3-dimethyl-1-benzofuran-4-yl)methoxy]-2,3-dimethylphenyl}propanoic acid] |
